Assay results published in US7226904B2, “Agents and methods for promoting bone growth” (priority 2000, dated 2007).
Peptide text beside a SMILES is read from it. * marks the point of attachment. αGalNAc = CC(=O)N[C@@H]1[C@@H](O)[C@@H](O)[C@@H](CO)O[C@@H]1*

Assays:
normal adult rats = assay: Systemic (subcutaneous) administration to normal adult rats, pQCT bone densitometry of tibia; format: in vivo, rat; details: 0.4 ng/g B.W. every 2 days for two weeks, vs saline
Procedure: After humane sacrifice, long bones were collected from rats subjected to agent treatment as described in Examples 1 and 2. The bones were evaluated using densitometry techniques with the Norland Medical Systems pQCT scanner. The densitometric parameters that were determined included: • 1. Total Content, which is the mineral content of the bone within a 1 mm slice. • 2. Total Density, which is the mean density of the total bone. • 3. Trabecular Content, which is the mineral content of the trabecular bone within a 1 mm slice. • 4. Trabecular Density, which is the mean density of the trabecular bone • 5. Cortical Content, which is the mineral content of the cortical bone within a 1 mm slice. • 6. Cortical Density, which is the mean density of the […]. • 7. Periosteal circumference in the “circular ring model” in mm. • 8. Endosteal circumference in the “circular ring model” in mm. • 9. Total area (mm^2), which is the cross sectional area of the bone after the soft tissue has been peeled off. • 10. Cortical area (mm^2), which is the area assigned to be pure cortical. • 11. Trabecular area (mm^2), which is the cross sectional area of the trabecular area after the cortical and subcortical area has been peeled off. Effects of Agents on Bone Density:
Non-glycosylated fADBP, at a dosage of 0.4 ng/g of body weight, was administered by subcutaneous injection into normal adult rats every two days for two weeks. The effect of this treatment on bone density and DpD levels was assayed as described above.
Glycosylated fADBP, at a dosage of 5.0 ng/g of body weight was administered by subcutaneous injection into normal adult rats every two days for two weeks. The effect of this treatment on bone density was assayed as described above.
Non-glycosylated DBP peptides of different lengths, at a dosage of 0.4 ng/g of body weight, were administered by subcutaneous injection into normal adult rats every two days for two weeks. The DBP peptides were derived from fADBP and comprised the first 3, 4, 5, 6, 7, 8, 9, 10, 11, 12, and 13 amino acids of SEQ ID NO. 1. After humane sacrifice, the tibia was collected from control and DBP peptide treated rats and analyzed using densitometry techniques with the Norland Medical Systems pQCT scanner. Statistical analysis was performed

[1] = system: Ovariectomized Sprague-Dawley rats; assay: High-dose administration to ovariectomized Sprague-Dawley rats; format: in vivo; details: 100 ng/g to 30 μg/g body weight every day for 60 days
Procedure: Ovariectomized Sprague-Dawley rats were allowed to lose bone from 60 days. Thereafter, animals were injected with glycosylated fADBP or non-glycosylated fADBP, at concentrations ranging from 100 ng/g of body weight to 30 μg/g of body weight every day for 60 days.

## DBP peptide 6: first 6 amino acids of SEQ ID NO. 1 (Thr Pro Thr Glu Leu Ala) (TPTELA; listed as Homo sapiens)
Normal adult rats
  Total Bone Density: significantly increased

## DBP peptide 4: first 4 amino acids of SEQ ID NO. 1 (Thr Pro Thr Glu) (TPTE; listed as Homo sapiens)
Normal adult rats
  Total Bone Density: significantly increased

## DBP peptide 10: first 10 amino acids of SEQ ID NO. 1 (Thr Pro Thr Glu Leu Ala Lys Leu Val Asn) (TPTELAKLVN; listed as Homo sapiens)
Normal adult rats
  Total Bone Density: significantly increased

## DBP peptide 8: first 8 amino acids of SEQ ID NO. 1 (Thr Pro Thr Glu Leu Ala Lys Leu) (TPTELAKL; listed as Homo sapiens)
Normal adult rats
  Total Bone Density: significantly increased

## CC(=O)N[C@H]1[C@@H](O[C@H](C)[C@H](NC(=O)[C@@H]2CCCN2C(=O)[C@@H](N)[C@@H](C)O)C(=O)N[C@@H](CCC(=O)O)C(=O)N[C@@H](CC(C)C)C(=O)N[C@@H](C)C(=O)N[C@@H](CCCCN)C(=O)N[C@@H](CC(C)C)C(=O)N[C@H](C(=O)N[C@@H](CC(N)=O)C(=O)N[C@@H](CCCCN)C(=O)N[C@@H](CCCNC(=N)N)C(=O)N[C@@H](CO)C(=O)N[C@@H](CCC(=O)O)C(=O)O)C(C)C)O[C@H](CO)[C@H](O)[C@@H]1O [Glycosylated fADBP] (H-TPT(αGalNAc)ELAKLVNKRSE-OH)
[1]
  toxic effect: no detectable toxic effect

## DBP peptide 7: first 7 amino acids of SEQ ID NO. 1 (Thr Pro Thr Glu Leu Ala Lys) (TPTELAK; listed as Homo sapiens)
Normal adult rats
  Total Bone Density: significantly increased

## DBP peptide 3: first 3 amino acids of SEQ ID NO. 1 (Thr Pro Thr) (TPT; listed as Homo sapiens)
Normal adult rats
  Total Bone Density: significantly increased

## DBP peptide 5: first 5 amino acids of SEQ ID NO. 1 (Thr Pro Thr Glu Leu) (TPTEL; listed as Homo sapiens)
Normal adult rats
  Total Bone Density: significantly increased

## DBP peptide 11: first 11 amino acids of SEQ ID NO. 1 (Thr Pro Thr Glu Leu Ala Lys Leu Val Asn Lys) (TPTELAKLVNK; listed as Homo sapiens)
Normal adult rats
  Total Bone Density: significantly increased

## DBP peptide 12: first 12 amino acids of SEQ ID NO. 1 (Thr Pro Thr Glu Leu Ala Lys Leu Val Asn Lys Arg) (TPTELAKLVNKR; listed as Homo sapiens)
Normal adult rats
  Total Bone Density: significantly increased
